ChEMBL document CHEMBL5370552, “Rational design and evaluation of 2-((pyrrol-2-yl)methylene)thiophen-4-ones as RNase L inhibitors” (Eur J Med Chem, 2023)
Active and inactive are the calls of the source. The rule behind the calls is not given here.

Columns and labels:
[1] = molecular target: T1, 2-5A-dependent ribonuclease (Homo sapiens) (UniProt Q05823); test: Inhibition of his6-tagged full length human RNase L expressed in insect cells at 130 uM incubated for 30 min by FRET assay relative to control
T1 sequence (whole entry): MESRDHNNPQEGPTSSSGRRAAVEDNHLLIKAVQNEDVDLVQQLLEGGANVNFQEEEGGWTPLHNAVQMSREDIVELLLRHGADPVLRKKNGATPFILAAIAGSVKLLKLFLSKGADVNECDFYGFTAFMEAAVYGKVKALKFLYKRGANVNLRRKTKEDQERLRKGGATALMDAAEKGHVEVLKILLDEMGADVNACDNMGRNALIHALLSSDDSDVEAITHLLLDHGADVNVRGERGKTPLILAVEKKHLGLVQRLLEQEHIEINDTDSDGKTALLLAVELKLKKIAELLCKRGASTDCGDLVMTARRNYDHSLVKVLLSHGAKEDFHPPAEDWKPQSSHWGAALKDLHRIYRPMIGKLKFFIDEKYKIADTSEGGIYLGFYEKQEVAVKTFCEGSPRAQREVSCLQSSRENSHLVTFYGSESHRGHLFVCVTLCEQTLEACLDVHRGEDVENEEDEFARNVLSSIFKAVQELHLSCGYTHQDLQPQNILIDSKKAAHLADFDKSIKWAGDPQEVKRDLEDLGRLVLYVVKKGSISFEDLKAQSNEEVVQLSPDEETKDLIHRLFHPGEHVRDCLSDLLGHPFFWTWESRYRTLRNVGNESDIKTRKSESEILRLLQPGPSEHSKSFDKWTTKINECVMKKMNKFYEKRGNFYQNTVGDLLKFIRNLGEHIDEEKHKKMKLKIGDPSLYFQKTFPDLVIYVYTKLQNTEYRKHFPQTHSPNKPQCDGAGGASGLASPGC

[2] = molecular target: T1, 2-5A-dependent ribonuclease (Homo sapiens); test: Inhibition of his6-tagged full length human RNase L expressed in insect cells at 250 uM incubated for 30 min by FRET assay relative to control
[3] = molecular target: T2, 2-5A-dependent ribonuclease (Homo sapiens, UniProt Q05823); test: Inhibition of his6-tagged full length human RNase L expressed in insect cells incubated for 30 min by FRET assay
T2 sequence (Q05823 whole entry): T1 sequence (whole entry)

[4] = molecular target: T1, 2-5A-dependent ribonuclease (Homo sapiens); test: Inhibition of his6-tagged full length human RNase L expressed in insect cells at 250 uM incubated for 30 mins in presence of 2-5A and ATP by gel based RNA cleavage assay relative to control
[5] = molecular target: T1, 2-5A-dependent ribonuclease (Homo sapiens); test: Inhibition of his6-tagged full length human RNase L expressed in insect cells incubated for 30 mins in presence of 2-5A and ATP by gel based RNA cleavage assay; conditions: dose 250.0 µM
[6] = molecular target: T1, 2-5A-dependent ribonuclease (Homo sapiens); test: Binding affinity to his6-tagged full length human RNase L expressed in insect cells by biolayer interferometry analysis
[7] = molecular target: T1, 2-5A-dependent ribonuclease (Homo sapiens); test: Inhibition of RNase L in human HeLa cells assessed as ribosomal RNA degradation at 2 uM incubated for 4 hrs by NanoDrop spectrophotometry analysis; assay type: cell-based
[8] = molecular target: T1, 2-5A-dependent ribonuclease (Homo sapiens); test: Inhibition of RNase L in human HeLa cells assessed as ribosomal RNA degradation at 10 uM incubated for 4 hrs by NanoDrop spectrophotometry analysis relative to control; assay type: cell-based
[9] = molecular target: T1, 2-5A-dependent ribonuclease (Homo sapiens); test: Potency index, ratio of sunitinib IC50 to test compound IC50 for inhibition of his6-tagged full length human RNase L expressed in insect cells incubated for 30 min by FRET assay

| SMILES | inhibition [2] [%] | also measured |
| --- | --- | --- |
| CCN(CC)CCNC(=O)c1c(C)[nH]c(/C=C2/SC(Nc3cccc(C(F)(F)F)c3)=C(C(=O)NC)C2=O)c1C |  | inhibition [1]: 97% |
| CCN(CC)CCNC(=O)c1c(C)[nH]c(/C=C2/OC(Nc3ccccc3)=C(C(=O)NCCN)C2=O)c1C | 93 |  |
| CCN(CC)CCNC(=O)c1c(C)[nH]c(/C=C2/OC(Nc3cccc(F)c3)=C(C(=O)NCCNC(=O)OC(C)(C)C)C2=O)c1C | 84 |  |
| CCN(CC)CCNC(=O)c1c(C)[nH]c(/C=C2/SC(Nc3cccc(F)c3)=C(C(=O)NCCN)C2=O)c1C | 102 | IC50 [3]: 16 µM; inhibition [4]: 100%; inhibition [5]: Dose-Dependent Effect; Activity [6]: Active; inhibition [7]: Active; inhibition [8]: 100% |
| CCN(CC)CCNC(=O)c1c(C)[nH]c(/C=C2/SC(Nc3ccccc3)=C(C(=O)NCCNC(=O)OC(C)(C)C)C2=O)c1C | 75 |  |
| CCOC(=O)C1=C(Nc2ccccc2)S/C(=C/c2[nH]c(C)c(C(=O)NCCN(CC)CC)c2C)C1=O | 78 |  |
| CCN(CC)CCNC(=O)c1c(C)[nH]c(/C=C2/SC(Nc3ccccc3)=C(C(=O)NCCN)C2=O)c1C | 101 | IC50 [3]: 28 µM |
| CCN(CC)CCNC(=O)c1c(C)[nH]c(/C=C2/OC(Nc3ccccc3)=C(C(=O)NCCNC(=O)OC(C)(C)C)C2=O)c1C | 79 |  |
| CCN(CC)CCNC(=O)c1c(C)[nH]c(/C=C2/SC(Nc3cccc(Cl)c3)=C(C(=O)NC)C2=O)c1C |  | inhibition [1]: 88% |
| CCOC(=O)C1=C(Nc2ccc(F)cc2)S/C(=C/c2[nH]c(C)c(C(=O)NCCN(CC)CC)c2C)C1=O | 80 |  |
| CCOC(=O)C1=C(Nc2ccc(CC)cc2)S/C(=C/c2[nH]c(C)c(C(=O)NCCN(CC)CC)c2C)C1=O | 83 |  |
| CCOC(=O)C1=C(Nc2ccc([N+](=O)[O-])cc2)S/C(=C/c2[nH]c(C)c(C(=O)NCCN(CC)CC)c2C)C1=O | 67 |  |
| CCN(CC)CCNC(=O)c1c(C)[nH]c(/C=C2/SC(Nc3cccc(F)c3)=C(C(=O)NC)C2=O)c1C | 58 |  |
| CCN(CC)CCNC(=O)c1c(C)[nH]c(/C=C2/SC(Nc3cccc(OC)c3)=C(C(=O)NC)C2=O)c1C | 99 |  |
| CCN(CC)CCNC(=O)c1c(C)[nH]c(/C=C2/SC(Nc3cccc(OC)c3)=C(C(=O)NCCN)C2=O)c1C | 101 | IC50 [3]: 13 µM; Ratio IC50 [9]: 30; inhibition [4]: 100%; inhibition [5]: Dose-Dependent Effect; Activity [6]: Active |
| CCN(CC)CCNC(=O)c1c(C)[nH]c(/C=C2/SC(Nc3cccc(Cl)c3)=C(C(=O)NCCNC(=O)OC(C)(C)C)C2=O)c1C | 96 |  |
| CCOC(=O)C1=C(Nc2ccccc2Br)S/C(=C/c2[nH]c(C)c(C(=O)NCCN(CC)CC)c2C)C1=O | 85 |  |
| CCN(CC)CCNC(=O)c1c(C)[nH]c(/C=C2/SC(Nc3cccc(F)c3)=C(C(=O)NCCNC(=O)OC(C)(C)C)C2=O)c1C | 100 |  |

| SMILES | inhibition [2] [%] | also measured |
| --- | --- | --- |
| CCOC(=O)C1=C(Nc2ccc(OC)cc2)S/C(=C/c2[nH]c(C)c(C(=O)NCCN(CC)CC)c2C)C1=O | 70 |  |
| CCN(CC)CCNC(=O)c1c(C)[nH]c(/C=C2/SC(Nc3ccc(F)cc3)=C(C(=O)NC)C2=O)c1C | < 5 |  |
| CCN(CC)CCNC(=O)c1c(C)[nH]c(/C=C2/SC(Nc3cccc([N+](=O)[O-])c3)=C(C(=O)NC)C2=O)c1C |  | inhibition [1]: 60% |
| CCN(CC)CCNC(=O)c1c(C)[nH]c(/C=C2/OC(Nc3cccc(F)c3)=C(C(=O)NCCN)C2=O)c1C | 97 | IC50 [3]: 41.9 µM |
| CCN(CC)CCNC(=O)c1c(C)[nH]c(/C=C2/SC(Nc3ccccc3)=C(C(=O)NC)C2=O)c1C | 67 |  |
| CCOC(=O)C1=C(Nc2cccc([N+](=O)[O-])c2)S/C(=C/c2[nH]c(C)c(C(=O)NCCN(CC)CC)c2C)C1=O | 76 |  |
| CCOC(=O)C1=C(Nc2cccc(OC)c2)S/C(=C/c2[nH]c(C)c(C(=O)NCCN(CC)CC)c2C)C1=O | 78 |  |
| CCN(CC)CCNC(=O)c1c(C)[nH]c(/C=C2\C(=O)Nc3ccc(F)cc32)c1C | 83 |  |
| CCOC(=O)C1=C(Nc2ccc(Br)cc2)S/C(=C/c2[nH]c(C)c(C(=O)NCCN(CC)CC)c2C)C1=O | 90 |  |
| CCOC(=O)C1=C(Nc2ccc(C(F)(F)F)cc2)S/C(=C/c2[nH]c(C)c(C(=O)NCCN(CC)CC)c2C)C1=O | 90 |  |
| CCOC(=O)C1=C(Nc2cccc(F)c2)S/C(=C/c2[nH]c(C)c(C(=O)NCCN(CC)CC)c2C)C1=O | 76 |  |
| CCN(CC)CCNC(=O)c1c(C)[nH]c(/C=C2/SC(Nc3cccc(OC)c3)=C(C(=O)NCCNC(=O)OC(C)(C)C)C2=O)c1C |  | inhibition [1]: 49% |
| CCOC(=O)C1=C(Nc2ccc(OC)c(OC)c2)S/C(=C/c2[nH]c(C)c(C(=O)NCCN(CC)CC)c2C)C1=O | 79 |  |
| CCOC(=O)C1=C(Nc2ccc(C)cc2)S/C(=C/c2[nH]c(C)c(C(=O)NCCN(CC)CC)c2C)C1=O | 83 |  |
| CCN(CC)CCNC(=O)c1c(C)[nH]c(/C=C2/SC(Nc3cccc(Cl)c3)=C(C(=O)NCCN)C2=O)c1C | 101 | IC50 [3]: 12 µM; inhibition [4]: 100%; inhibition [5]: Dose-Dependent Effect; Activity [6]: Active |
| CCN(CC)CCNC(=O)c1c(C)[nH]c(/C=C2/OC(Nc3ccccc3)=C(C(=O)NC)C2=O)c1C | 74 |  |
| CCN(CC)CCNC(=O)c1c(C)[nH]c(/C=C2/SC(Nc3cccc(F)c3)=C(C(=O)NCc3ccccc3)C2=O)c1C | 99 |  |
